Results: US20250215010A1, “DIAZABICYCLOOCTANE DERIVATIVES USEFUL AS MATRIX METALLOPROTEINASE INHIBITORS” (VASA THERAPEUTICS SPOLKA Z OGRANICZONA ODPOWIEDZIALNOSCIA, priority 2022, published 2025)
pIC50: −log10 of the molar value. Read-outs that look alike come from different tables or passages of the source.

Tests used:
Format in all cases: biochemical
[1] = target: T1, MMP13 (Homo sapiens, UniProt P45452); assay: MMP-13 colorimetric inhibition assay (Enzo kit BML-AK412); settings: thiopeptide substrate, absorbance 415 nm; read-out: MMP 13 IC50 class
T1 construct: purchased Enzo Life Sciences, Inc. BML-AK412
In short: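 Thiopeptide chromogenic substrate (Ac-PLG-[2-mercapto-4-methylpentanoyl]-LG-OC2H5); MMP-13 hydrolysis of the thioester yields a thiol that reacts with DTNB, read at 415 nm. IC50 values (nM) derived from inhibition curves of normalized data.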

[2] = target: T2, MMP1 (Homo sapiens, UniProt P03956); assay: MMP-1 colorimetric inhibition assay (Enzo kit BML-AK404); settings: thiopeptide substrate, absorbance 415 nm; read-out: MMP 1 IC50 class
T2 sequence (P03956 100-269 limits assumed): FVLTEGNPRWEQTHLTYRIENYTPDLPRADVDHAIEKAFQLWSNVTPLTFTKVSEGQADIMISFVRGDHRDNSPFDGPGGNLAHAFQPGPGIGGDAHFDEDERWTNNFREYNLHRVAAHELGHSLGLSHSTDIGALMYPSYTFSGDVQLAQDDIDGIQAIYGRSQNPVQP
In short: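 Colorimetric kit run per manufacturer protocol. MMP-1 cleaves a thiopeptide substrate (Ac-PLG-[2-mercapto-4-methylpentanoyl]-LG-OC2H5); released thiol reacts with DTNB, monitored at 415 nm. IC50 (nM) from inhibition curves of normalized values.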

[3] = target: ADAM17 (TACE) (Homo sapiens, UniProt P78536); assay: TACE fluorometric inhibition assay (Enzo kit BML-AK310); settings: quenched fluorogenic peptide, ex/em 320/420 nm; read-out: TACE IC50 class
In short: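 Kit-based TACE assay run per manufacturer's protocol, using quenched fluorogenic peptide Mca-PLAQAV-Dpa-RSSSR-NH2 whose cleavage raises Mca fluorescence. Signal read at ex/em 320/420 nm; IC50 (nM) derived from inhibition curves of normalized values.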

[4] = target: T3, ADAM10 (Homo sapiens, UniProt O14672); assay: SensoLyte 520 ADAM10 fluorometric activity assay (AnaSpec AS-72226)
T3 construct: purchased AnaSpec, Inc. AS-72226
T3 sequence (O14672 214-748): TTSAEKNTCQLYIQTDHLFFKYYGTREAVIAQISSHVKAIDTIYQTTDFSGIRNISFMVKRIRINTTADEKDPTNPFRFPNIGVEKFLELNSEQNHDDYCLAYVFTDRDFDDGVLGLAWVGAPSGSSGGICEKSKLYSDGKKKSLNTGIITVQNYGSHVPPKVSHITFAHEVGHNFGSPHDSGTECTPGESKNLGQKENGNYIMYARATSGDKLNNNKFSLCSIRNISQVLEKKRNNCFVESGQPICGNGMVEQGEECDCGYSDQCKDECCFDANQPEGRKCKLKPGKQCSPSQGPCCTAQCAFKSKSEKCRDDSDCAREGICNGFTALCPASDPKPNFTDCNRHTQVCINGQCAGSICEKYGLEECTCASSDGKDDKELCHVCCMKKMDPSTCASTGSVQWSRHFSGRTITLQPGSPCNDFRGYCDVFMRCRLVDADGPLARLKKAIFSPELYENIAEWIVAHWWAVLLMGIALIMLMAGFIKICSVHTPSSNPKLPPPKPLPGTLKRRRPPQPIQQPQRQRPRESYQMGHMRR
In short: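 ADAM10 activity was read by cleavage of a FRET peptide substrate (5-FAM/QXL 520), run per the kit protocol, with fluorescence at 495/520 nm. IC50 values (nM) came from inhibition curves of normalized data.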

[5] = target: T4, MMP2 (Homo sapiens, UniProt P08253); assay: MMP-2 colorimetric inhibition assay (Enzo kit BML-AK408); settings: thiopeptide substrate, absorbance 415 nm; read-out: MMP 2 IC50 class
T4 sequence (P08253 110-660): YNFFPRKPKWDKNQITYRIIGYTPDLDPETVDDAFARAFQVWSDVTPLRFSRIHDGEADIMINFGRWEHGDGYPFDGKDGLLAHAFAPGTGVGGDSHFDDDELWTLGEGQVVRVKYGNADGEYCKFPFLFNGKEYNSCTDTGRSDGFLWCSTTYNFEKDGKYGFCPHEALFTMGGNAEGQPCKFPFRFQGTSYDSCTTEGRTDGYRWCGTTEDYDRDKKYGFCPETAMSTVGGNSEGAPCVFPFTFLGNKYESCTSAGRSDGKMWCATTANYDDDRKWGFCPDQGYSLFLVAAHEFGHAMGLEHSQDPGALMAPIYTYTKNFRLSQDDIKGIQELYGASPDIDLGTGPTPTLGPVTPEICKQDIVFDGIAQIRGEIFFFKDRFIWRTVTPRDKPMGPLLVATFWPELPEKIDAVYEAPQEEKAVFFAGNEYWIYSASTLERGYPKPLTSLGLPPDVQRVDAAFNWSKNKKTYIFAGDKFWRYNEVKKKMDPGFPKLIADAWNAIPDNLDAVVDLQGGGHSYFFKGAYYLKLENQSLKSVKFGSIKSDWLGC
In short: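 Cleavage of the thiopeptide Ac-PLG-[2-mercapto-4-methylpentanoyl]-LG-OC2H5 releases a sulfhydryl that reacts with DTNB, read at 415 nm per the kit protocol. IC50 values (nM) come from inhibition curves of normalized data.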

[6] = target: MMP9 (Homo sapiens, UniProt P14780); assay: MMP-9 colorimetric inhibition assay (Enzo kit BML-AK410); settings: thiopeptide substrate, absorbance 415 nm; read-out: MMP 9 IC50 class
In short: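 Colorimetric thioester-substrate assay: hydrolysis of Ac-PLG-[2-mercapto-4-methylpentanoyl]-LG-OC2H5 frees a thiol that reacts with DTNB, read at 415 nm. Run per kit protocol. IC50 (nM) taken from inhibition curves of normalized values.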

[7] = FRET peptide substrate, ex/em 495/520 nm, read-out: ADAM 10 IC50 class

Chain of MMP9 (P14780 94-707): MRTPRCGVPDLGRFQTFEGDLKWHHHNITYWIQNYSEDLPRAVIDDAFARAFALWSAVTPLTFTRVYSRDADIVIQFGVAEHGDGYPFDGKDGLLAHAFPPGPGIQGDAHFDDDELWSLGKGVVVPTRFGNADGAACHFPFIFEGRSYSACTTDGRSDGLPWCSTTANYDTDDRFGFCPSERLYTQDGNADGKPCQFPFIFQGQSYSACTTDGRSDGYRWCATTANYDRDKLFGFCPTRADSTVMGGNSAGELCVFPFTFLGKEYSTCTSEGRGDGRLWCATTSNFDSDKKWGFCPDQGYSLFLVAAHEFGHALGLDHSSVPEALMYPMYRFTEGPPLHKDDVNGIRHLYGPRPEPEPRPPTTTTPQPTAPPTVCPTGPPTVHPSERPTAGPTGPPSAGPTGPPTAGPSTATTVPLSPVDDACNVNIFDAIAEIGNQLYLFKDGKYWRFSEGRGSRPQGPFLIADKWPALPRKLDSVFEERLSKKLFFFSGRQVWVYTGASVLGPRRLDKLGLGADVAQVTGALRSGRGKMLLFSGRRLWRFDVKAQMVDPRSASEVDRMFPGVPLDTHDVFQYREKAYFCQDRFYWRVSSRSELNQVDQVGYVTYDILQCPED
Chain of ADAM17 (TACE) (P78536 215-477 limits assumed): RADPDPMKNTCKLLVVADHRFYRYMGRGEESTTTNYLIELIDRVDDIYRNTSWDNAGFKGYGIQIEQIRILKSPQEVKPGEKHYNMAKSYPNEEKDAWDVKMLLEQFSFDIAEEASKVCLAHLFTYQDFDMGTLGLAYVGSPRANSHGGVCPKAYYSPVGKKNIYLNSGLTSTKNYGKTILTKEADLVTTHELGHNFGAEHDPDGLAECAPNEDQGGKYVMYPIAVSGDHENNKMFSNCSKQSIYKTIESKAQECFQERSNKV

Row | SMILES | pIC50 [1] | pIC50 [2] | pIC50 [3] | pIC50 [4, 7] | pIC50 [5] | pIC50 [6] | pIC50 [4]
1 | COCCOC(=O)N1[C@@H]2CC[C@H]1[C@H](C(=O)NO)N(S(=O)(=O)c1ccc(Oc3ccc(F)c(F)c3)nc1)C2 [Example 22, 2-methoxyethyl (1S,2R,5R)-3-((6-(3,4-difluoro-phenoxy)pyridin-3-yl)sulfonyl)-2-(hydroxycarbamoyl)-3,8-diazabicyclo-[3.2.1]octane-8-carboxylate] | > 7.30 | 6.00 to 7.30 | 6.00 to 7.30 | < 5.00 | > 7.30 | > 7.30 | –
2 | COCCOC(=O)N1[C@@H]2CC[C@H]1[C@H](C(=O)NO)N(S(=O)(=O)c1ccc(Oc3cnn(-c4ccccc4)c3)nc1)C2 [Example 39, 2-methoxyethyl (1S,2R,5R)-2-(hydroxycarbamoyl)-3-((6-((1-phenyl-1H-pyrazol-4-yl)oxy)-pyridin-3-yl)sulfonyl)-3,8-diazabicyclo-[3.2.1]octane-8-carboxylate] | > 7.30 | 6.00 to 7.30 | 6.00 to 7.30 | < 5.00 | > 7.30 | > 7.30 | –
3 | COCCOC(=O)N1[C@@H]2CC[C@H]1[C@H](C(=O)NO)N(S(=O)(=O)c1ccc(Oc3ccc(F)cn3)cc1)C2 [Example 7, 2-methoxyethyl (1S,2R,5R)-3-((4-((5-fluoropyridin-2-yl)oxy)phenyl)-sulfonyl)-2-(hydroxycarbamoyl)-3,8-diazabicyclo-[3.2.1]octane-8-carboxylate] | > 7.30 | 6.00 to 7.30 | 6.00 to 7.30 | 6.00 to 7.30 | > 7.30 | > 7.30 | –
4 | COCCOC(=O)N1[C@@H]2CC[C@H]1[C@H](C(=O)NO)N(S(=O)(=O)c1ccc(Oc3ccc(F)cc3)nc1)C2 [Example 1, (1S,2R,5R)-2-methoxyethyl 3-((6-(4-fluorophenoxy)pyridin-3-yl)sulfonyl)-2-(hydroxycarbamoyl)-3,8-diazabicyclo[3.2.1]octane-8-carboxylate] | > 7.30 | 6.00 to 7.30 | 5.00 to 6.00 | 5.00 to 6.00 | > 7.30 | > 7.30 | –
5 | COCCOC(=O)N1[C@@H]2CC[C@H]1[C@H](C(=O)NO)N(S(=O)(=O)c1ccc(Oc3ccc(Cl)cc3F)nc1)C2 [Example 20, 2-methoxyethyl (1S,2R,5R)-3-((6-(4-chloro-2-fluoro-phenoxy)pyridin-3-yl)sulfonyl)-2-(hydroxycarbamoyl)-3,8-diazabicyclo[3.2.1]-octane-8-carboxylate] | > 7.30 | 6.00 to 7.30 | 6.00 to 7.30 | 5.00 to 6.00 | > 7.30 | > 7.30 | –
6 | CCC(=O)N1[C@@H]2CC[C@H]1[C@H](C(=O)NO)N(S(=O)(=O)c1ccc(Oc3ccc(OC(C)C)cc3)nc1)C2 [Example 59, (1S,2R,5R)-N-hydroxy-3-((6-(4-isopropoxyphenoxy)pyridin-3-yl)-sulfonyl)-8-propionyl-3,8-diaza-bicyclo[3.2.1]octane-2-carboxamide] | > 7.30 | 5.00 to 6.00 | < 5.00 | < 5.00 | > 7.30 | > 7.30 | –
7 | CCC(=O)N1[C@@H]2CC[C@H]1[C@H](C(=O)NO)N(S(=O)(=O)c1ccc(Oc3ccc(OC(F)(F)F)cc3)nc1)C2 [Example 55, (1S,2R,5R)-N-hydroxy-8-propionyl-3-((6-(4-(trifluoromethoxy)-phenoxy)pyridin-3-yl)sulfonyl)-3,8-diazabicyclo[3.2.1]-octane-2-carboxamide] | > 7.30 | 5.00 to 6.00 | 5.00 to 6.00 | < 5.00 | > 7.30 | > 7.30 | –
8 | COCCOC(=O)N1[C@@H]2CC[C@H]1[C@H](C(=O)NO)N(S(=O)(=O)N1CCC(Oc3ccc(C(F)(F)F)cc3)CC1)C2 [Example 48, 2-methoxyethyl (1S,2R,5R)-2-(hydroxy-carbamoyl)-3-((4-(4-(trifluoromethyl)phenoxy)-piperidin-1-yl)-sulfonyl)-3,8-diazabicyclo-[3.2.1]octane-8-carboxylate] | > 7.30 | 5.00 to 6.00 | > 7.30 | – | > 7.30 | > 7.30 | 6.00 to 7.30
